Values after ≈ are worked out from the molar mass of the structure shown. Values joined by “and” are separate entries in the source; they are usually repeats but may differ in a detail not shown here. Identical values can stand only once. Like-named read-outs stand apart in the source and are kept apart here.
Experiments:
[1] = system: Pseudomonas aeruginosa (ATCC 13388); experiment: Activity spectrum, microdilution; assay type: cell-based; conditions: 24 h, absorbance 600 nm
[2] = system: Escherichia coli (ATCC 11775); experiment: Activity spectrum, microdilution; assay type: cell-based; conditions: 24 h, absorbance 600 nm
[3] = system: Staphylococcus aureus (ATCC 6538); experiment: Activity spectrum, microdilution; assay type: cell-based; conditions: 24 h, absorbance 600 nm
[4] = system: Salmonella Typhimurium (ATCC 14028); experiment: Activity spectrum, microdilution; assay type: cell-based; conditions: 24 h, absorbance 600 nm
[5] = system: MRC-5 (ATCC CCL-171) cells
[6] = system: Mycobacterium smegmatis mc2155 (ATCC 700084); experiment: MIC90 against M. smegmatis (resazurin); assay type: cell-based; conditions: for Spectrum activity, M. smegmatis: 2 days, resazurin
[7] = system: Mycobacterium tuberculosis H37Rv (ATCC 27294), replicating; experiment: MIC90 against replicating M. tuberculosis (resazurin microtiter assay, REMA); assay type: cell-based; conditions: 7 days; for MIC90: Mycobacterium tuberculosis, 168 h
[8] = system: J774A.1 (ATCC TIB-67) cells; experiment: Cytotoxicity against macrophage cells (resazurin); assay type: cell-based, mice; conditions: for IC50: Mus musculus
[9] = system: MRC-5 (ATCC CCL-171) cells; experiment: cells; conditions: Homo sapiens
[10] = system: intramacrophagic M. tuberculosis H37Rv; experiment: Intramacrophagic activity (J774A.1 macrophages infected with M. tuberculosis H37Rv, CFU count); assay type: cell-based, Mycobacterium tuberculosis; conditions: 5× MIC (6.15 μM), 3 days of exposure
[11] = system: non-replicating (NRP) M. tuberculosis; experiment: LORA, MIC90 against non-replicating M. tuberculosis; assay type: cell-based, Mycobacterium tuberculosis
Experimental: The LORA method was used to determine the MIC90 of compounds against latent/non-replicating (NRP) mycobacteria. According to Wayne and Sohaskey (2001) [18], under a low-oxygen atmosphere, NRP mycobacteria, containing the plasmid pFCA-ABCDE that encodes a luminescent protein in aerated environments, were plated in a 96-well plate with 100 mL of compounds in a range of 0.39 to 100 μg/mL.

M. tuberculosis = experiment: Time-kill curve; assay type: cell-based, Mycobacterium tuberculosis; conditions: MIC and 2× MIC, 15 days
[12] = system: latent tuberculosis infection (LTBI); conditions: cited from earlier work; for Efficacy in preventing progression to active tuberculosis infection: LTBI patients, monotherapy, ref Huaman et al. (2019) [28]
[13] = J774A.1 ATCC TIB-67, 24 h, J774A.1, 24 h
[14] = J774A.1 ATCC TIB-67, 48 h, J774A.1, 48 h
[15] = J774A.1 ATCC TIB-67, 72 h, J774A.1, 72 h
[16] = Mycobacterium tuberculosis, LORA, low-oxygen

Row | Compound | Spectrum activity, P. aeruginosa [1] [µg/mL] | Spectrum activity, E. coli [2] [µg/mL] | Spectrum activity, S. aureus [3] [µg/mL] | Spectrum activity, S. typhimurium [4] [µg/mL] | Spectrum activity, M. smegmatis [6] [µg/mL] | MIC90 [7] | IC50 [8, 13] [µg/mL] | IC50 [8, 14] [µg/mL] | IC50 [8, 15] [µg/mL] | IC50 ([9]; MRC5, 24 h) [µg/mL] | IC50 ([9]; MRC5, 48 h) [µg/mL] | IC50 ([9]; MRC5, 72 h) [µg/mL] | MIC90 [11, 16] | death profile in time-kill curve (bactericidal = 3 log10 CFU/mL decrease) (M. tuberculosis) | Efficacy in preventing progression to active tuberculosis infection [12] [%] | also measured
1 | CNC(C)C1CCC(N)C(OC2C(N)CC(N)C(OC3OCC(C)(O)C(NC)C3O)C2O)O1 (stereo not drawn) [Gentamicin] | 2.02 ± 0.66 | 5.07 ± 0.14 | 3.97 ± 2.35 | 1.16 ± 0.38 | – | – | – | – | – | – | – | – | – | – | – | –
2 | CC1=NN(C(=O)c2ccncc2)C(O)(c2ccccc2)C1 (stereo not drawn) [Hydrazone 14] | >100 | >100 | >100 | >100 | >25.0 | 1.23 µM and 0.35 µg/mL | > 100 | 83.3 ± 28.9 (≈ 296 µM) | 81.8 ± 31.5 (≈ 291 µM) | > 100 | > 100 | > 100 | 6.31 µM and 1.77 µg/mL | – | – | cytotoxicity [5]: no detectable cytotoxicity; IS (selectivity index) ([5]; IC50/MIC90, MRC-5, 24 h): >289.02; IS (selectivity index) ([5]; IC50/MIC90, MRC-5, 48 h): >289.02; IS (selectivity index) ([5]; IC50/MIC90, MRC-5, 72 h): >289.02; growth inhibition of M. smegmatis [6]: unable to inhibit the mycobacteria growth; MIC90 Replicating [7]: 1.23 ± 0.53 µM (≈ 0.346 µg/mL); IS (selectivity index) ([8]; IC50/MIC90, J774A.1, 24 h): >289.02; IS (selectivity index) ([8]; IC50/MIC90, J774A.1, 48 h): 240.88; IS (selectivity index) ([8]; IC50/MIC90, J774A.1, 72 h): 236.46; intramacrophagic inhibition (log reduction vs untreated) [10]: 0.5 log10 CFU/mL; MIC90 Non-Replicating ([11]; LORA, low-oxygen): 6.31 ± 5.72 µM (≈ 1.78 µg/mL)
3 | NNC(=O)c1ccncc1 [Isoniazid] | – | – | – | – | – | 0.44 µM and 0.06 µg/mL | > 100 | > 100 | > 100 | > 100 | > 100 | > 100 | > 300 µM and > 45 µg/mL | bacteriostatic | 90 | IS (selectivity index) [5]: >1666.66; TB activation after LTBI treatment ([12]; share of cases, INH monotherapy): 10%; IS (selectivity index) [8]: >1666.66; inhibition of non-replicating bacteria ([11]; LORA assay): non-inhibition; MIC90 ([11]; LORA, low-oxygen): >328.13 µM
4 | CO[C@H]1/C=C/O[C@@]2(C)Oc3c(C)c(O)c4c(O)c(c(/C=N/N5CCN(C)CC5)c(O)c4c3C2=O)NC(=O)/C(C)=C\C=C\[C@H](C)[C@H](O)[C@@H](C)[C@@H](O)[C@@H](C)[C@H](OC(C)=O)[C@@H]1C [Rifampicin] | – | – | – | – | 2.4 ± 1.5 | 0.05 µM and 0.04 µg/mL | – | – | – | – | – | – | < 0.36 µM and < 0.3 µg/mL | bacteriostatic | ~90 | –
